The text below walks through data of patent US7285664B2, “Heterocyclic or benzenic derivatives of lipoic acid, their preparation and their use as medicaments” (S.C.R.A.S. Societe de Conseils de Recherches et …, priority 2000, dated 2007).

Broadly, the EC50 is the concentration needed to bring the measured effect to its halfway point. A higher EC50 goes with a less potent agent.

This experiment has as its system HT-22 cells. In words: Effects on the oxidative stress induced by glutamate on cells in culture (HT-22), MTT viability. It is filed as cell-based. The settings on record: Mus musculus; protection of HT-22 cells from glutamate (5 mM); viability after 24 hours by MTT. The method, then: Study of the Effects on the Oxidative Stress Induced by Glutamate on Cells in Culture (HT-22):
The inhibitory activity of the products of the invention is determined by measuring their ability to protect the cells of a mouse hippocampal cell line (HT-22) from oxidative stress caused by glutamate. The biosynthesis of glutathione, an essential element in cell detoxification of free radicals, requires the active transport of cystine to inside the cell. The glutamate by opposing the penetration of cystine causes a reduction in the level of gluthatione which leads to the death of the cell by oxidative stress (Demerle-Pallardy, C. et al., J. Neurochem. (2000), 74, 2079-2086; Davis, J. B. and Maher, P., Brain Res., (1994) 652: 169-173; Murphy, T. H. et al., Neuron, (1989) 2: 1547-1558). The cells are cultured at 37° C. in a DMEM medium with 10% of fetal calf serum added to it. The tests are carried out in 96-well plates containing 5000 cells per well. The glutamate (5 mM) is added to the medium containing or not containing the products to be tested. The cell viability is tested after 24 hours by the MTT process (Hansen, M. B. et al., J. Immunol. Processes (1989) 119: 203-210). The ability of the compounds to protect the cells from the toxic action of the glutamate is estimated in EC50, calculated relative to the viability of cells which have not been subjected to the action of the glutamate considered as 100% viability.

Structures can show the parent of a compound that is named as a salt.

Compound `NC(=Nc1ccc(N2CCN(C(=O)CCCCC3CCSS3)CC2)cc1)c1cccs1` (stereo not drawn) [Example 1, N′-(4-{4-[5-(1,2-dithiolan-3-yl)pentanoyl]-1-piperazinyl)phenyl)-2-thiophenecarboximidamide hydrochloride] came in with an EC50 not above 4 µM. The figure for `NC(=Nc1ccc(N2CCN(C(=O)CC3CCSS3)CC2)cc1)c1cccs1` (stereo not drawn) [Example 2, N′-(4-{4-[2-(1,2-dithiolan-3-yl)acetyl]-1-piperazinyl}phenyl)-2-thiophenecarboximidamide] is not above 4 µM. The figure for `NC(=Nc1cccc(CN2CCN(C(=O)CC3CCSS3)CC2)c1)c1cccs1` (stereo not drawn) [Example 4, N′-[3-({4-[2-(1,2-dithiolan-3-yl)acetyl]-1-piperazinyl}methyl)phenyl]-2-thiophenecarboximidamide] is not above 4 µM. Turning to `NC(=Nc1ccc(N2CCN(C(=O)NCCCCC3CCSS3)CC2)cc1)c1cccs1` (stereo not drawn) [Example 5, 4-(4-{[amino(2-thienyl)methylidene]amino}phenyl)-N-[4-(1,2-dithiolan-3-yl)butyl]-1-piperazinecarboxamide], the EC50 was not above 4 µM.

For the compound `Cc1cc(N2CCN(C(=O)NCCCCC3CCSS3)CC2)ccc1N=C(N)c1cccs1` (stereo not drawn) [Example 7, 4-(4-{[amino(2-thienyl)methylidene]amino}-3-methylphenyl)-N-[4-(1,2-dithiolan-3-yl)butyl]-1-piperazinecarboxamide], the half-maximal effective concentration (EC50) is not above 4 µM. On to `COc1cc(N=C(N)c2cccs2)ccc1N1CCN(C(=O)NCCCCC2CCSS2)CC1` (stereo not drawn) [Example 8, 4-(4-{[amino(2-thienyl)methylidene]amino}-2-methoxyphenyl)-N-[4-(1,2-dithiolan-3-yl)butyl]-1-piperazinecarboxamide], for which the EC50 was not above 4 µM. The figure for `COc1cc(N2CCN(C(=O)NCCCCC3CCSS3)CC2)ccc1N=C(N)c1cccs1` (stereo not drawn) [Example 9, 4-(4-{[amino(2-thienyl)methylidene]amino}-3-methoxyphenyl)-N-[4-(1,2-dithiolan-3-yl)butyl]-1-piperazinecarboxamide] is not above 4 µM; for `N#Cc1cc(N=C(N)c2cccs2)ccc1N1CCN(C(=O)NCCCCC2CCSS2)CC1` (stereo not drawn) [Example 10, 4-(4-{[amino(2-thienyl)methylidene]amino}-2-cyanophenyl)-N-[4-(1,2-dithiolan-3-yl)butyl]-1-piperazinecarboxamide] it is not above 4 µM; for `NC(=Nc1cccc(CN2CCN(C(=O)NCCCCC3CCSS3)CC2)c1)c1cccs1` (stereo not drawn) [Example 11, 4-(3-{[amino(2-thienyl)methylidene]amino}benzyl)-N-[4-(1,2-dithiolan-3-yl)butyl]-1-piperazinecarboxamide] it is not above 4 µM.
